# Data taken from patent publication US20040259864A1, “Substituted pyrimidinone derivatives as ligands of integrin receptors” (priority 2001, published 2004).
# Target: T1, integrin αvβ3 (Homo sapiens, UniProt P05106+P06756)
# T1 construct: from tissue; host or cells: human placenta
# Assay: Integrin αvβ3 assay (competition with vitronectin for binding to solid-phase integrin αvβ3)
# Conditions: integrin αvβ3 from human placenta, ranking in words only
# Protocol: Integrin αvβ3 antagonists were identified and assessed using a test system based on competition between the natural integrin αvβ3 ligand vitronectin and the test substance for binding to integrin αvβ3 bound to a solid phase. […]
# coat microtiter plates with 250 ng/ml integrin-αvβ3 in 0.05 M NaHCO3 pH 9.2; 0.1 ml/well; […]
# saturate with 1% milk powder/assay buffer; 0.3 ml/well; 0.5 h/RT wash 3× with 0.05% Tween 20/assay buffer
# Test substance in 0.1% milk powder/assay buffer, 50 μl/well+0 μg/ml or 2 μg/ml human vitronectin (Boehringer Ingelheim T007) in 0.1% milk powder/assay buffer, 50 μl/well; 1 h/RT […]
# 1 μg/ml anti human vitronectin antibody coupled to peroxidase (Kordia SAVN-APHRP) in 0.1%: milk powder/assay buffer; 0.1 ml/well; 1 h/RT […]
# 0.1 ml/well peroxidase substrate […]
# stop reaction with 0.1 ml/well 2 M H2SO4 […]
# measure the absorption at 450 nm
# Integrin αvβ3: human placenta is solubilized with Nonidet, and integrin αvβ3 is affinity-purified on a GRGDSPK matrix (elution with EDTA). Contamination by integrin αIIbβ3 and human serum albumin, as well as the detergent and EDTA, are removed by anion exchange chromatography.
# Assay buffer: 50 mM tris pH 7.5; 100 mM NaCl; 1 mM CaCl2; 1 mM MgCl2; 10 ΞM MnCl2 […]
# Peroxidase substrate: mix 0.1 ml of TMB solution (42 mM TMB In DMSO) and 10 ml of substrate buffer (0.1 M Na acetate pH 4.9) and then add 14.7 pi of 3% H2O2. […]
structure (smiles),measurement,value
"Cc1cn(CC(Cc2ccc3ccccc3c2)C(=O)O)c(=O)nc1N1CCC(Nc2nc3ccccc3[nH]2)CC1.O=C(O)C(F)(F)F (stereo not shown) [Compound I, 2-[(1-{1-[2-Carboxy-3-(2-naphthyl)propyl]-5-methyl-2-oxo-1,2-dihydropyrimidin-4-yl)-piperidin-4-yl)amino]-1H-benzimidazol-1-ium trifluoroacetate]",IC50 values (concentration of the ligand at which 50% of the ligand is displaced),best result
